This is an account of results in article PMC8617303 (2021).

Experiment [1] has as its system c-myc G-quadruplex (DNA, G4) TGAGGGTGGTGAGGGTGGGGAAGG
Kind of experiment: fluorescence titration, plate reader. The following applies: 2 nM compound; site 1 of 2.

The subject of experiment [2] is c-kit21 G-quadruplex (DNA, G4) CGGGCGGGGCGCGAGGAAAA
Kind of experiment: fluorescence titration, plate reader. The following applies: 2 nM compound; site 1 of 2.

The subject of experiment [3] is bcl-2 G-quadruplex (DNA, G4) AGGGGCGGGCGCGGGAGGAAGGGGGCGGGAGCGGGGCTG
Kind of experiment: fluorescence titration, plate reader. The following applies: 2 nM compound; site 1 of 2.

The test system of experiment [4] is c-myc mutant DNA (DNA, single strand) TGAAAATAATGAAAATAAAAAAGA
The experiment is described as follows: fluorescence titration, plate reader. The following applies: 2 nM compound.

Experiment [5] relates to c-myc duplex (DNA, duplex) TGAGGGTGGTGAGGGTGGGGAAGG/CCTTCCCCACCCTCACCACCCTCA
The experiment is described as follows: ITC. Particulars: K+ (50 mM KCl, 10 mM potassium phosphate); pH 7.0, 25 °C; ~10^4 fold lower affinity than c-myc G4.

Experiment [6] relates to c-myc G-quadruplex (DNA, G4) TGAGGGTGGTGAGGGTGGGGAAGG
The experiment is described as follows: ITC. The following applies: K+ (50 mM KCl, 10 mM potassium phosphate); pH 7.0, 25 °C; site 1 of 2.

Experiment [7] has as its system c-myc mutant DNA (DNA, single strand) TGAAAATAATGAAAATAAAAAAGA
Kind of experiment: ITC. Particulars: K+ (50 mM KCl, 10 mM potassium phosphate); pH 7.0, 25 °C; ~10^4 fold lower affinity than c-myc G4.

The subject of experiment [8] is tel22 G-quadruplex (DNA, G4) AGGGTTAGGGTTAGGGTTAGGG
Kind of experiment: fluorescence titration, plate reader. Particulars: 2 nM compound.

Experiment [9] concerns c-myc duplex (DNA, duplex) TGAGGGTGGTGAGGGTGGGGAAGG/CCTTCCCCACCCTCACCACCCTCA
The experiment is described as follows: fluorescence titration, plate reader. The following applies: 2 nM compound; site 1 of 2.

For experiment [10], the system named is c-myc mutant DNA (DNA, single strand) TGAAAATAATGAAAATAAAAAAGA
The experiment is described as follows: gel retardation, native PAGE. The following applies: K+ (50 mM KCl, 10 mM potassium phosphate); pH 7.0, 25 °C; 10 µM DNA; up to 100 µM compound.

With `CC(=NNC(=S)NN=C(C)c1ccccc1)c1ccccc1`, the Kd1 in experiment [1] turned out to be 2.86 ± 0.03 µM.

For `CC(CCN=Cc1ccccc1O)N=Cc1ccccc1O` (centres unmarked), in [1], the Kd1 was 3.76 ± 0.03 µM.

On to `Oc1ccccc1NCCNc1ccccc1O`, for which the Kd1 in experiment [1] is 2.56 ± 0.02 µM.

Turning to `O=C(CC(=O)Nc1ccccc1)Nc1ccccc1`, the Kd1 in experiment [1] was 4.61 ± 0.05 µM.

For `O=S(=O)(NCCNS(=O)(=O)c1ccccc1)c1ccccc1`, the Kd1 in experiment [2] amounted to 4.86 ± 0.02 µM; in [1] it was 0.002 ± 0.001 µM; in experiment [3], 0.024 ± 0.009 µM; in experiment [8] (site 1 of 2), 0.19 ± 0.02 µM; in experiment [9], 1.81 ± 0.09 µM. The compound also had a Kd2 in experiment [4] of 0.195 ± 0.04 µM. The binding result in [5] is “weak”; in experiment [7], “weak”; in [10], “no”. In addition, the Ka1 in [6] is recorded as 3.81 × 10^7 ± 0.01 M^-1.

Regarding `O=C(/C=C/C=C/c1ccc2c(c1)OCO2)N1CCCCC1`, the Ka1 in experiment [6] is reported as 4.56 × 10^5 ± 0.03 M^-1.

Regarding `Cc1ccc(NC(=S)Nc2ccccc2)cc1`, the Kd1 in [1] is 1.34 ± 0.13 µM.

For `CC(C)=NOC(=O)Nc1ccc(Cl)cc1`, the Kd1 in experiment [2] is 1.71 ± 0.005 µM; in experiment [1] it was 0.010 ± 0.003 µM; in [3], 0.761 ± 0.01 µM; in experiment [4] (site 1 of 2), 0.023 ± 0.03 µM; in [9] it was 0.559 ± 0.03 µM. Also, the Ka1 in experiment [6] is 3.34 × 10^5 ± 0.4 M^-1. Also, in [8] (stronger of two sites, printed as Kd2 (Kd1 3.47)), the Kd2 came out at 2.89 ± 0.03 µM.
